In PubChem BioAssay AID1845216 (Molecular Pharmacology Branch, DTP, NCI, 2023):

Test system: SW 982 tumor spheroid viability
Experiment: Anticancer human tumor SW 982 cell line growth inhibition;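 note: spheroids exposed to compound for 7 days before readout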
Details: spheroids with HUVEC and MSC; for viability, T/C: stronger effect = lower value
Method in brief: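 Complex spheroids of malignant cells with endothelial cells and mesenchymal stem cells; agents alone or combined, from near clinical Cmax (or 10 microM if unknown) down in half-log steps, 0.25% DMSO final.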

**Q.** Which IC50 (curve of first compound, second compound 30 pM) does the source give for `Cc1sc2c(c1C)C(c1ccc(Cl)cc1)=NC(CC(=O)Nc1ccc(O)cc1)c1nnc(C)n1-2` (configuration not stated) + COc1cc2c(cc1O)CCNC21CSC2c3c(OC(C)=O)c(C)c4c(c3C(COC1=O)N1C(O)C3Cc5cc(C)c(OC)c(O)c5C(C21)N3C)OCO4 here?
**A.** 257 nM

**Q.** And the IC50 (curve of first compound, second compound 94.9 pM)?
**A.** 344 nM

**Q.** And the IC50 (curve of first compound, second compound 0.0003 µM)?
**A.** 482 nM

**Q.** And the IC50 (curve of first compound, second compound 0.000949 µM)?
**A.** 9.49 nM

**Q.** What about the IC50 (curve of first compound, second compound 0.003 µM) of the same compound?
**A.** < 9.49 nM

**Q.** And the viability, T/C (second compound 30 pM, first compound 0.00949 µM)?
**A.** 95.5%

**Q.** And the viability, T/C (second compound 30 pM, first compound 0.03 µM)?
**A.** 94.6%

**Q.** What about the viability, T/C (second compound 30 pM, first compound 0.0949 µM) of the same compound?
**A.** 75.5%

**Q.** And the viability, T/C (second compound 30 pM, first compound 0.3 µM)?
**A.** 46.2%

**Q.** And the viability, T/C (second compound 30 pM, first compound 0.949 µM)?
**A.** 28.5%

**Q.** And the viability, T/C (second compound 30 pM, first compound 3 µM)?
**A.** 23.6%

**Q.** And the viability, T/C (second compound 94.9 pM, first compound 0.00949 µM)?
**A.** 97.4%

**Q.** And the viability, T/C (second compound 94.9 pM, first compound 0.03 µM)?
**A.** 96.7%

**Q.** And the viability, T/C (second compound 94.9 pM, first compound 0.0949 µM)?
**A.** 71.1%

**Q.** And the viability, T/C (second compound 94.9 pM, first compound 0.3 µM)?
**A.** 53.8%

**Q.** And the viability, T/C (second compound 94.9 pM, first compound 0.949 µM)?
**A.** 33.2%

**Q.** What about the viability, T/C (second compound 94.9 pM, first compound 3 µM) of the same compound?
**A.** 21.6%

**Q.** And the viability, T/C (second compound 0.0003 µM, first compound 0.00949 µM)?
**A.** 76.6%

**Q.** And the viability, T/C (second compound 0.0003 µM, first compound 0.03 µM)?
**A.** 82.5%

**Q.** What about the viability, T/C (second compound 0.0003 µM, first compound 0.0949 µM) of the same compound?
**A.** 70.4%

**Q.** What about the viability, T/C (second compound 0.0003 µM, first compound 0.3 µM) of the same compound?
**A.** 68%

**Q.** And the viability, T/C (second compound 0.0003 µM, first compound 0.949 µM)?
**A.** 24.9%

**Q.** What about the viability, T/C (second compound 0.0003 µM, first compound 3 µM) of the same compound?
**A.** 13.6%

**Q.** And the viability, T/C (second compound 0.000949 µM, first compound 0.00949 µM)?
**A.** 41.4%

**Q.** And the viability, T/C (second compound 0.000949 µM, first compound 0.03 µM)?
**A.** 41.3%

**Q.** And the viability, T/C (second compound 0.000949 µM, first compound 0.0949 µM)?
**A.** 64.8%

**Q.** What about the viability, T/C (second compound 0.000949 µM, first compound 0.3 µM) of the same compound?
**A.** 19.2%

**Q.** And the viability, T/C (second compound 0.000949 µM, first compound 0.949 µM)?
**A.** 4.8%

**Q.** And the viability, T/C (second compound 0.000949 µM, first compound 3 µM)?
**A.** 3.12%

**Q.** What about the viability, T/C (second compound 0.003 µM, first compound 0.00949 µM) of the same compound?
**A.** 0.7%

**Q.** What about the viability, T/C (second compound 0.003 µM, first compound 0.03 µM) of the same compound?
**A.** 8.8%

**Q.** And the viability, T/C (second compound 0.003 µM, first compound 0.0949 µM)?
**A.** 0.33%

**Q.** What about the viability, T/C (second compound 0.003 µM, first compound 0.3 µM) of the same compound?
**A.** 0.26%

**Q.** What about the viability, T/C (second compound 0.003 µM, first compound 0.949 µM) of the same compound?
**A.** 0.37%

**Q.** What about the viability, T/C (second compound 0.003 µM, first compound 3 µM) of the same compound?
**A.** 0.99%

**Q.** Which results are given for `COc1cc2c(cc1O)CCNC21CSC2c3c(OC(C)=O)c(C)c4c(c3C(COC1=O)N1C(O)C3Cc5cc(C)c(OC)c(O)c5C(C21)N3C)OCO4` (configuration not stated)?
**A.** viability, T/C (compound 0.003 µM): 0.57% [middle of 10 runs]; IC50 (compound alone, run of 12/12/2019): 0.667 nM [middle of 10 runs]
